Values of other authors in patent US5536812A, “Calcitonin analogue and use thereof” (Sanwa Kagaku Kenkyusho Co., Ltd., priority 1994, dated 1996).

Columns and labels:
[1] = analogue of Jap. Pat. Hei 4-59795(A) / EP-A-0 464 549
[2] = system: Wister male rat; conditions: standard manufactured by Penisula Lab. Inc., Lot No. 015405

Row | Substance | biological activities compared with native Salmon I calcitonin [1] | Activity of the eel calcitonin standard [2] [IU/mg]
1 | salmon I calcitonin-Hse^33 -NH2 | substantially same with the native Salmon I calcitonin | 
2 | eel calcitonin |  | 4500
